Tests used:
human Nav1.7 channels = target: T1, human Nav1.7 channels (Homo sapiens, UniProt Q15858); test: Whole-cell patch clamp, use-dependent block of sodium current, drug applied intracellularly or externally; type: cell-based; conditions: for effect on sodium current when applied externally versus inside the cell: same protocol, applied outside the cell
T1 construct: expressed in transfected cells
Protocol: Whole-cell recordings were made of currents carried by voltage-activated channels in HEK293 cells stably expressing human Nav1.7 channels. Recordings were made using patch pipettes with resistances of 2-3.5 MQ when filled with internal solution, consisting of 61 mM CsF, 61 mM CsCl, 9 mM NaCl, 1.8 mM MgCl2, 9 mM EGTA, 14 mM creatine phosphate (tris salt), 4 mM MgATP, and 0.3 mM GTP (tris salt), 9 mM HEPES, pH adjusted to 7.2 with CsOH. The shank of the electrode was wrapped with Parafilm in order to reduce capacitance and allow optimal series resistance compensation without oscillation. Seals were obtained and the whole-cell configuration established with cells in Tyrode's solution (155 mM NaCl, 3.5 mM KCl, 1.5 mM CaCl2), 1 mM MgCl2, 10 mM HEPES, 10 mM glucose, pH adjusted to 7.4 with NaOH) with 10 mM TEACl. To ensure complete dialysis with pipette solution, recordings began after 5 to 10 min after establishment of the whole-cell configuration.
Currents were recorded at room temperature (21-23° C.) with an Axopatch 200 amplifier and filtered at 5 kHz with a low-pass Bessel filter. The amplifier was tuned for partial compensation of series resistance (typically 70-80% of a total series resistance of 4-10 MO). Currents were digitized using a Digidata 1322A data acquisition interface controlled by pClamp9.2 software (Axon Instruments) and analyzed using programs written in Igor Pro 4.0 (Wavemetrics, Lake Oswego, Oreg.). Currents were corrected for linear capacitative and leak currents determined using 5 mV hyperpolarizations delivered from the resting potential (usually −80 or −100 mV) and then appropriately scaled and subtracted.
Sodium currents were evoked by 30-msec depolarizations from −100 mV to −20 mV. To assay use-dependent block, pulses were delivered at series of increasing rates: 0.05 Hz for 1-min, 0.33 Hz for 1-min, 1 Hz for 1-min, 3 Hz for 1-min, 5 Hz for 30 seconds, 10 Hz for 30 seconds, with 1 minute rest between each series of pulses. After the series of pulses to induce use-dependent block, the time course of recovery was followed using pulses delivered at 01. Hz (2-min) and 0.05 Hz (1-min).
To induce use-dependent block, the depolarizations were delivered by series of increasing rates: 0.05 Hz for 1-min, 0.33 Hz for 1-min, 1 Hz for 1-min, 3 Hz for 1-min, 5 Hz for 30 seconds, 10 Hz for 30 seconds, with 1 minute rest between each series of pulses. After the series of pulses to induce use-dependent block, the time course of recovery was followed using pulses delivered at 01. Hz (2-min) and 0.05 Hz (1-min). Peak sodium current was plotted as a function of experimental time (1-min per division on the time axis).

[1] = system: thermal nociceptive threshold; test: Thermal nociceptive threshold after acute intraplantar injection in naive animals; type: in vivo, rats; conditions: naïve animals
[2] = system: CFA-induced thermal hyperalgesia; test: CFA-induced thermal hyperalgesia (Hargreaves radiant heat, hind paw); type: in vivo; conditions: mice, intraplantar co-injection with CFA, 1%
Protocol: FIGS. 2A-2D show reversal of CFA-induced thermal hyperalgesia by charged sodium channel blockers. FIGS. 2A and 2C show time course (0, 1, 6, and 24 hours) of changes in thermal nociceptive sensitivity measured as response latency (seconds) to a constant radiant heat source applied to the plantar surface of hind paw in mice co-treated with 20 μL (injected in the left hindpaw) of CFA (50% emulsion) and saline, and when the CFA was co-applied with QX-314 (1%, hollow square), N-ethyl etidocaine (Compound 21, 1%; dark square), or ACS8180-3B (Compound 3, 1%; solid triangle). FIGS. 2B and 2D show the nociceptive heat pain response time before CFA treatment and after treatment with the different compounds 1 hour post CFA injection. The data are means±SEM of 8-16 mice per group. The statistical comparison with pre-CFA (*) and with CFA+Vehicle (+) is indicated by +P<0.05; ++P<0.01 and +++,*** P<0.001. All procedures were approved by the Institutional Animal Care and Use Committees. Mice and rats were housed in standard environmental conditions (12-h light/dark cycle; 23° C.; food and water ad libitum) at facilities accredited by the Association for Assessment and Accreditation of Laboratory Animal Care. 8-week old male BALB/c (stock number: 001026) and C57BL/6J (stock number 000664) mice were purchased from Jackson Laboratory and respectively used in allergic airway inflammation (FIG. 5) and pain hypersensitivity model (FIGS. 2A-2D). 6-week old male Sprague-Dawley (stock number: 400) rats, 150±25 grams, were purchased from Charles River laboratory and used to assess pain hypersensitivity (FIG. 3). The compounds were injected in the plantar surface of each animal's right hind paw in 10 μl (mice) or 50 μl (rats) volume of 1:1 emulsion of Complete Freund's Adjuvant (CFA). […] On the 4th day, their thermal nociceptive threshold was evaluated. […] Impact of treatment was analyzed 1 h prior and 1, 3, 6 and 24 h post-treatment. […] With each reading the apparatus was set with a cut-off time of 32 s.

T1 sequence (Q15858 whole entry): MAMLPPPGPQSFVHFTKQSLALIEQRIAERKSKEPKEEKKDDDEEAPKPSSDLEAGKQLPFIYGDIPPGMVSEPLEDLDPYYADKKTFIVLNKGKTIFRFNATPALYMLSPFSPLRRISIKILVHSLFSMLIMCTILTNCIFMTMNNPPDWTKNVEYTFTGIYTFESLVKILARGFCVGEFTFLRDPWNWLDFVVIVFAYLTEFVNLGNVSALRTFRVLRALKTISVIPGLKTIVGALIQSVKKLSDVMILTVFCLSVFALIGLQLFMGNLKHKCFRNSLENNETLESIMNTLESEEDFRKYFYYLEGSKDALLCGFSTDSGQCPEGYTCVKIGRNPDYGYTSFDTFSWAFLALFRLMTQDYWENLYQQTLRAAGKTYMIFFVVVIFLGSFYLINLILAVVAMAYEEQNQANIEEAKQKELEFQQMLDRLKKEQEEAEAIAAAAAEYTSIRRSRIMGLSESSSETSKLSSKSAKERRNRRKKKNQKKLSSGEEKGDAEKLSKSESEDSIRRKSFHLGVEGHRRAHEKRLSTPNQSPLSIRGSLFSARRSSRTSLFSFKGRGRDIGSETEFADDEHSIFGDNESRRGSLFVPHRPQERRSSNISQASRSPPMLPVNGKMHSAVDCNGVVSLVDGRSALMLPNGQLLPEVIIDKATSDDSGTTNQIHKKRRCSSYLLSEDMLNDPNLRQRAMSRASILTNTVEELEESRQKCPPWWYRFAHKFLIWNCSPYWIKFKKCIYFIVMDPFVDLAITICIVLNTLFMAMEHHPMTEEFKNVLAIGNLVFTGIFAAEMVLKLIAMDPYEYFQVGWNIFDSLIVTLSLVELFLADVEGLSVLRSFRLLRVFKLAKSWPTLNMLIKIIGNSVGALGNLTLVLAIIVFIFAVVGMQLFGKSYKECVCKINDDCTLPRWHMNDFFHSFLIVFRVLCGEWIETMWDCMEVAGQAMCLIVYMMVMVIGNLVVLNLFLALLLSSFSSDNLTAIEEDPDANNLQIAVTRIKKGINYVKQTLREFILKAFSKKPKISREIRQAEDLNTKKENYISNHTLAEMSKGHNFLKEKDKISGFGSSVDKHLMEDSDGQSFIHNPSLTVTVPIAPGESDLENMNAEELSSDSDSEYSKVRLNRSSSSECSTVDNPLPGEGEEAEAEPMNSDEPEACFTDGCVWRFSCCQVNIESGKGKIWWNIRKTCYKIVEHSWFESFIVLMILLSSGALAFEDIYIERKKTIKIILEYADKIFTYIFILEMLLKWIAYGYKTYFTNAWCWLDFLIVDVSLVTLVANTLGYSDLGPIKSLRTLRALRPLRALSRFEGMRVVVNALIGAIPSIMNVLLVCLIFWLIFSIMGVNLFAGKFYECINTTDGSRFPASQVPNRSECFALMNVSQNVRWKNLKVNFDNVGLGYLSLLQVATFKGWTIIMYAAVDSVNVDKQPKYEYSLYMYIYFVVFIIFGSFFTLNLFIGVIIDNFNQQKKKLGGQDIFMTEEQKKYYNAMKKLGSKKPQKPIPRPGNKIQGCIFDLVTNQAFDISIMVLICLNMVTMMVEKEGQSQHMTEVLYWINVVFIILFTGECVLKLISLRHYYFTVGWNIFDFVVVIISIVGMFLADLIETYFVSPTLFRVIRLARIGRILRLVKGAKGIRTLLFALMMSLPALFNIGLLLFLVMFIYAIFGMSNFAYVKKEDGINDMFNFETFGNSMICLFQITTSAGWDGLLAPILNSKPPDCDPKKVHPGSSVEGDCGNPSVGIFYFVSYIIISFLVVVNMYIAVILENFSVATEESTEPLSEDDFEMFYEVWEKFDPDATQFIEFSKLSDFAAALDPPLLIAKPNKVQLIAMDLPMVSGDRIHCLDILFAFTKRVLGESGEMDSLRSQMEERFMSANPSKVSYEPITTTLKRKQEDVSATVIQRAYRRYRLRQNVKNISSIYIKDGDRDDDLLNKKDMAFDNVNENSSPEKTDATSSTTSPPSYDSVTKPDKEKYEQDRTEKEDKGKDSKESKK

| SMILES | inhibition at 100 µM (human Nav1.7 channels) [%] | other results |
| --- | --- | --- |
| Cc1cccc(C)c1NC(=O)C(C)[N+]1(C)CCCC1 (stereo not shown) [Compound 1, 1-(1-(2,6-dimethylphenylamino)-1-oxopropan-2-yl)-1-methylpyrrolidinium Chloride] | 40 |  |
| Cc1cccc(C)c1NC(=O)C(C)(C)[N+]1(C)CCCC1 [Compound 2, 1-(1-(2,6-dimethylphenylamino)-2-methyl-1-oxopropan-2-yl)-1-methylpyrrolidinium Chloride] | 42 |  |
| CCC(C(=O)Nc1c(C)cccc1C)[N+]1(CC)CCCC1 (stereo not shown) [Compound 3, 1-(1-(2,6-dimethylphenylamino)-1-oxobutan-2-yl)-1-ethylpyrrolidinium Chloride] | 78 | long lasting analgesia in naïve animals [1]: without long lasting analgesia; reversal of CFA-induced thermal hyperalgesia [2]: potent blockade |
| Cc1cccc(C)c1NC(=O)C(C)[N+]1(C)CCCCC1 (stereo not shown) [Compound 4, 1-(1-(2,6-dimethylphenylamino)-1-oxopropan-2-yl)-1-methylpiperidinium Chloride] | 43 |  |
| Cc1cccc(C)c1NC(=O)C(C)(C)[N+]1(C)CCCCC1 [Compound 5, 1-(1-(2,6-dimethylphenylamino)-2-methyl-1-oxopropan-2-yl)-1-methylpiperidinium Chloride] | 34 |  |
| CCC(C(=O)Nc1c(C)cccc1C)[N+]1(CC)CCCCC1 (stereo not shown) [Compound 6, 1-(1-(2,6-dimethylphenylamino)-1-oxobutan-2-yl)-1-ethylpiperidinium] | 83 | use dependent accumulation of block (human Nav1.7 channels; 100 micromolar inside cell, stimulation frequencies from 1 to 10 Hz): strong use dependent accumulation of block; effect on sodium current when applied externally versus inside the cell (human Nav1.7 channels): far more effective when applied inside the cell; effect on sodium current when applied externally versus inside the cell (human Nav1.7 channels; listed as compound 6): very little effect |
| Cc1cccc(C)c1NC(=O)C1CCC[N+]1(C)C (stereo not shown) [Compound 13, 2-(2,6-dimethylphenylcarbamoyl)-1,1-dimethylpyrrolidinium Chloride] | 33 |  |
| CC[N+]1(CC)CCCC1C(=O)Nc1c(C)cccc1C (stereo not shown) [Compound 14, 2-(2,6-dimethylphenylcarbamoyl)-1,1-diethylpyrrolidinium Chloride] | 62 |  |
| CC[N+]1(CC)CCCCC1C(=O)Nc1c(C)cccc1C (stereo not shown) [Compound 15, 2-(2,6-dimethylphenylcarbamoyl)-1,1-diethylpiperidinium Chloride] | 40 |  |
| Cc1cc(F)cc(C)c1NC(=O)C1CCCC[N+]1(C)C (stereo not shown) [Compound 16, 2-(4-fluoro-2,6-dimethylphenylcarbamoyl)-1,1-dimethylpiperidinium Chloride] | 70 |  |
| CC[N+](CC)(CC)CC(=O)Nc1ccc(N)cc1 [Compound 22, 2-(4-aminophenylamino)-N,N,N-triethyl-2-oxoethanaminium] | 0 |  |
| CC[N+](CC)(CC)CC(=O)Nc1c(C)cc(N)cc1C [Compound 23, 2-(4-amino-2,6-dimethylphenylamino)-N, N, N-triethyl-2-oxoethanaminium Chloride] | 56 |  |
| CC[N+](CC)(CC)CCC(=O)Nc1c(C)cccc1C [Compound 24, 3-(2,6-dimethylphenylamino)-N,N,N-triethyl-3-oxopropan-1-aminium Chloride] | 15 |  |
| CC[N+](CC)(CC)CCNC(=O)c1c(C)cccc1C [Compound 25] | 3 |  |

Reference: US20200377459A1, “CHARGED ION CHANNEL BLOCKERS AND METHODS FOR USE” (President and Fellows of Harvard College, priority 2015, published 2020)
